Entries after “also recorded” stand apart in the source; their conditions may differ.
Tests used:
NL4-3/V370A = test: Multi-cycle viral replication in MT4 cell assay; format: cell-based, HIV-1; conditions: relative to compound 1
[1] = test system: Gag CA-SP1 cleavage in NL4-3/V370A; test: Anti-HIV-1 maturation assay; format: cell-based; conditions: virus produced by 293T cells in presence of compound; Western blot
[2] = test system: Gag CA-SP1 cleavage in NL4-3/V362I; test: Anti-HIV-1 maturation assay; format: cell-based; conditions: virus produced by 293T cells in presence of compound; Western blot
[3] = test system: HIV-1 NL4-3 Env-mediated cell-cell fusion; test: Fusion assay; format: cell-based; conditions: COS cells expressing Env mixed with TZM-bl cells; luciferase
[4] = test system: BVM-R HIV-1 variants (V370Δ, V370A, V362I, T371Δ); test: Multi-cycle viral replication in MT4 cell assay, panel of BVM-R variants; format: cell-based; conditions: for sensitivity of BVM-R viruses to the compound: BVM-R variants
HIV-1 NL4-3 = conditions: relative to compound 1; cited from earlier work
[5] = test system: Gag CA-SP1 cleavage in wild type NL4-3; conditions: virus produced by 293T cells in presence of compound; Western blot

| Compound | fold more potent than 1 against the replication of NL4-3/V370A (NL4-3/V370A) | inhibition of Gag CA-SP1 cleavage (p25 accumulation), NL4-3/V370A [1] | inhibition of Gag CA-SP1 cleavage (p25 accumulation), NL4-3/V362I [2] | inhibition of HIV-1 entry / Env-mediated cell-cell fusion [3] | sensitivity of BVM-R viruses to the compound [4] | fold more potent than 1 against four BVM-R viruses ([4]; relative to compound 1) | increase in anti-HIV-1 maturation activity (HIV-1 NL4-3) | inhibition of Gag CA-SP1 cleavage (p25 accumulation), wild type NL4-3 [5] |
| --- | --- | --- | --- | --- | --- | --- | --- | --- |
| C=C(C)[C@@H]1CC[C@]2(C(=O)NCCCCCCCCC(=O)N[C@@H](CCC(N)=O)C(=O)OC)CC[C@]3(C)[C@H](CC[C@@H]4[C@@]5(C)CC[C@H](OC(=O)CC(C)(C)C(=O)O)C(C)(C)[C@@H]5CC[C@]43C)[C@@H]12 [Compound 6, Methyl N-[N’-[3β-O-(3’,3’-dimethylsuccinyl)-betulinic acid-28-oyl]-9-aminononanoyl]-L-glutaminate] | at least 20 fold | resulted in accumulation of CA-SP1 (p25) | accumulation of p25 was even more pronounced | do not inhibit HIV-1 entry; also recorded: did not inhibit | sensitive | at least 20 fold |  |  |
| C=C(C)[C@@H]1CC[C@]2(C(=O)N3CCN(CCCCC(=O)O)CC3)CC[C@]3(C)[C@H](CC[C@@H]4[C@@]5(C)CC[C@H](OC(=O)CC(C)(C)C(=O)O)C(C)(C)[C@@H]5CC[C@]43C)[C@@H]12 [Compound 30, N-[3β-O-(3′,3′-dimethylsuccinyl)lup-20(29)-en-28-oyl]-5-piperazinepentanoic acid] |  |  |  |  | ineffective; also recorded: not effective |  | greater than 10 fold |  |
| C=C(C)[C@@H]1CC[C@]2(C(=O)O)CC[C@]3(C)[C@H](CC[C@@H]4[C@@]5(C)CC[C@H](OC(=O)CC(C)(C)C(=O)O)C(C)(C)[C@@H]5CC[C@]43C)[C@@H]12 [Compound 1, 3-O-(3’,3’-dimethylsuccinyl)-betulinic acid] |  | did not inhibit the cleavage of Gag CA-SP1 |  | do not inhibit HIV-1 entry | not sensitive |  |  | interfered with the cleavage of Gag CA-SP1 |

From paper PMC3600082 (Journal of medicinal chemistry, 2013)
